Measured values as given in US20130005811A1, “ANTIMICROBIAL TREATMENT FOR SEEDS AND SPROUTS” (priority 2010, published 2013).

How the values were obtained:
[1] = test system: Clavibacter michiganenses subsp. michiganenses (CMM); conditions: 0.5% levulinic acid, 30° C., 30 hr, OD 600 nm
Description: (§1) The effect of levulinic acid on in vitro growth of a range of phytobacteria was determined using a Microbiology Reader BioscreenC (Transgalactic Ltd.; Helsinki, Finland) according to manufacturer's instructions. Briefly, inoculum was generated by transferring one colony of each bacterium from a three-day-old nutrient agar culture (Difco) to 5 ml of nutrient broth. Broth cultures were incubated overnight at 30° C. with continuous agitation and cells from 1 ml of broth were harvested by centrifugation (16,200×g) for 3 min and adjusted to about 3.0×10^8 CFU/ml (ODA600 nm=0.3) spectrophotometrically (Spectronic 20, Bausch and Lomb, Rochester, N.Y.). Cell suspensions were ten-fold serially diluted to desired concentrations, and 10 μl of each suspension was transferred to a single well in a honeycomb plate (Oy Growth Curves AB Ltd., Helsinki, Finland) containing 190 μl of nutrient broth amended with 3%, 1% or 0.5% levulinic acid. This yielded a starting suspension of about 1.5×10^4 CFU/ml. The microplate containing ten replicates of each bacterium×levulinic acid concentration treatment was incubated at 30° C. with continuous agitation in a BioscreenC MBR incubator/reader. Optical density measurements of each well were taken at a wavelength of 600 nm at 30 min intervals for 30 hr.

[2] = test system: Xanthomonas campestris pv. vesicatoria (XCV)
Description: (§2) The ability of combinations of levulinic acid and SDS to kill a range of plant pathogenic bacteria in vitro was tested. Nutrient broth liquid cultures were supplemented with 3%, 1%, or 0.5% levulinic acid. A range of gram-negative plant pathogenic bacteria was screened, including Acidovorax avenae subsp. citrulli, Erwinia (Pectobacterium) carotovora subsp. carotovora, Xanthomonas campestris pv. campestris, Xanthomonas axonopodis pv. vesicatoria and Pantoea ananatis subsp. ananatis. […] Each bacterium was evaluated 10 times and the experiment was repeated.
as §1

[3] = test system: Acidovorax avenae subsp. citrulli (Aac)
Description: as §2, §1

[4] = test system: Xanthomonas campestris pv. campestris (XCC)
Description: as §2, §1

Pantoea ananatis (PNA) = test system: Pantoea ananatis (PNA)
Description: as §2, §1

[5] = test system: Erwinia carotovora subsp. carotovora (ECC)
Description: as §2, §1

watermelon seeds = test: Germination of treated watermelon seeds; conditions: 0.05% SDS alone (negative control)
[6] = 0.5% levulinic acid, 30° C., 30 hr, OD 600 nm

SMILES | In vitro growth in nutrient broth [1] | Kind of action (broth cultures plated after incubation) [2] | Number of viable cells in the liquid broth ([2]; 0.5% levulinic acid) | In vitro growth in nutrient broth [2, 6] | Kind of action (broth cultures plated after incubation) [3] | Number of viable cells in the liquid broth ([3]; 0.5% levulinic acid) | In vitro growth in nutrient broth [3, 6] | Kind of action (broth cultures plated after incubation) [4] | Number of viable cells in the liquid broth ([4]; 0.5% levulinic acid) | In vitro growth in nutrient broth [4, 6] | Kind of action (broth cultures plated after incubation) (Pantoea ananatis (PNA)) | Number of viable cells in the liquid broth (Pantoea ananatis (PNA); 0.5% levulinic acid) | In vitro growth in nutrient broth (Pantoea ananatis (PNA); [6]) | Kind of action (broth cultures plated after incubation) [5] | Number of viable cells in the liquid broth ([5]; 0.5% levulinic acid) | In vitro growth in nutrient broth [5, 6] | Germination percentage (watermelon seeds) [%]
CC(=O)CCC(=O)O [levulinic acid, Levulinic acid] | prevented the growth | bactericidal rather than bacteristatic | killed the pathogens | prevented the growth | bactericidal rather than bacteristatic | killed the pathogens | prevented the growth | bactericidal rather than bacteristatic | killed the pathogens | prevented the growth | bactericidal rather than bacteristatic | killed the pathogens | prevented the growth | bactericidal rather than bacteristatic | killed the pathogens | prevented the growth | –
CCCCCCCCCCCCOS(=O)(=O)[O-].[Na+] [0.05% SDS, sodium dodecyl sulfate] | – | – | – | – | – | – | – | – | – | – | – | – | – | – | – | – | 89.25
